Data taken from patent US5932555A (priority 1997, dated 1999).
Values after ≈ are worked out from the molar mass of the structure shown.

How the values were obtained:
ICR mice = experiment: Acute toxicity test
Acute toxicity test = conditions: mouse, in vivo, iv
P388/ADR = experiment: Mouse in vivo antitumor test, P388/ADR transplanted; conditions: for T/C / average body weight after 10 days / average survival days: P388/ADR
Experimental: 2×10^5 cells of P388 or P388/ADR were inoculated intraperitoneally into each of CDF1 mice (male, each weighing 20 g, 10 animals/group), and from the next day, the test solution was administered at 10, 5, and 1 mg/kg body weight/day respectively by intraperitoneal injection of 200 μl sample at each concentration once a day for 10 successive days. The numbers with time of mice which survived after administration was counted and the average survival days and T/C (survival days of treated mice/survival days of control mice) were calculated. The average body weights after 10 days were also measured.

Solubility = format: physicochemical
[1] = tested on: blastgenesis of lymphocytes; experiment: Mouse allogenic mixed lymphocyte reaction (MLR), inhibition of blastgenesis ([3H]-thymidine incorporation); format: cell-based, mouse (C57BL/6 responder, BALB/C stimulator); conditions: 96 h
Experimental: The mouse allogenic mixed lymphocyte reaction for assay was carried out according to the method of Hatanaka et al. (Hatanaka et al., J. Antibiotics, 41, 1592-1601 (1988)). That is, spleen cells from C57BL/6 mouse (H-2^b) as responder cells were mixed with spleen cells from BALB/C mouse (H-2^d) treated with mitomycin C as stimulator cells, and then cultured.
Preparation of the responder cells was carried out in the following manner:
The spleen was removed from a 5- to 6-week-old C57BL/6 mouse, then homogenized in 20 ml ice-cold RPMI 1640 medium supplemented with 10% heat inactivated fetal calf serum (FCS), and filtered through a gauze to give a single cell suspension. The cells were recovered by centrifugation, suspended in 4 ml PRMI 1640 medium, followed by adding 6 ml solution (pH 7.2) containing 0.15 M ammonium chloride, 1 mM sodium hydrogen carbonate and 0.1 mM tetrasodium ethylenediaminetetraacetate, and the mixture was incubated at 0° C. for 1 minute to remove the contaminating erythrocytes. […]
90 μl of the responder cell suspension, 90 μl of the stimulator cell suspension and 20 μl of sample were added to a 96-well microplate and incubated at 37° C. in wet 5% CO2 /95% air for 96 hours. […] The radioactivity of a filter disk corresponding to each well was determined using liquid scintillation counter (beta-counter).

P388 = experiment: Cytotoxicity test on cultured tumor cell line P388 (MTT, 72 h); format: cell-based
Experimental: Cultured tumor cell lines P388 and P388/ADR were suspended in RPMI1640 medium containing 10% heat inactivated fetal calf serum (FCS) and 20 μM 2-mercaptoethanol whereby a cell suspension (5×10^4 cells/ml) was prepared.
72 hours thereafter, cell growth was measured by a calorimetric assay method using 3-(4,5-dimethyl-2-thiazolyl)-2,5-diphenyl-2H-tetrazolium bromide (MTT) as follows: 20 μl of 2 mg/ml MTT solution was added to each well and the cells were incubated for 4 hours at 37° C. Thereafter, 50 μl of 50% dimethylformamide solution containing 20% sodium dodecyl sulfate was added to each well and allowed to stand, so that the formed violet formazan crystal was dissolved, and its absorbance at 570 nm was measured in a microplate absorbance photometer (Immunoreader) and used as an indicator of the growth.
Degree of inhibition=[1-(absorbance in presence of sample)/(absorbance in
absence of sample)]×100 (1)

## COC(CC1C(C)=CCC2C1(C)CCC1C(C)(C)C(O)C(OC3OC(C)C(OC(=O)c4cccc(O)c4)C(OC4OC(CO)C(O)C(O)C4NC(C)=O)C3O)CC12C)C(N)C(=O)O (centres unmarked) [0406TP-1]
ICR mice; 100 mg/kg i.v., one month observation
  survival: all survived
ICR mice; acute toxicity test, in words
  toxicity and safety: low toxicity
Acute toxicity test
  LD50 at 730 h: > 100 mg/kg
P388/ADR; 1 mg/kg/day i.p. × 10 days
  T/C: 130%
  average body weight after 10 days: 26.2 g
  average survival days: 14.4 days
P388/ADR; 5 mg/kg/day i.p. × 10 days
  T/C: 133%
  average body weight after 10 days: 27.3 g
  average survival days: 14.8 days
P388/ADR; 10 mg/kg/day i.p. × 10 days
  T/C: 165%
  average body weight after 10 days: 26.4 g
  average survival days: 18.3 days
P388/ADR; P388/ADR-transplanted mice
  therapeutic effect: significant therapeutic effect
Solubility; acetone
  Solubility: Insoluble
Solubility; chloroform
  Solubility: Insoluble
Solubility; ethanol
  Solubility: Soluble
Solubility; ether
  Solubility: Insoluble
Solubility; ethyl acetate
  Solubility: Insoluble
Solubility; methanol
  Solubility: Soluble
Solubility; water
  Solubility: Soluble
[1]
  IC50: 0.11 µg/mL (≈ 0.123 µM)
P388; Mus musculus, P388, 72 h, MTT, read-out: IC50 (growth inhibition)
  IC50: 0.65 µg/mL (≈ 0.728 µM)
P388; in words
  cytotoxicity (antitumor activity) on cultured tumor cells: strong cytotoxicity
